Experimental findings from patent publication EP0167935A2, “Anthracycline derivatives, a process for the production thereof, a pharmaceutical composition containing the same and their use as medicaments” (priority 1984, dated 1986) are described below.

≈ marks a conversion by molar mass, not a printed value. Where two headings read alike, the source gives them in different places.

One data set deals with leukemic cells P 388. The experiment in a line: Inhibition of the growth of cultured leukemic cells P 388 (two-day culture). It is filed as cell-based. Conditions: Mus musculus, P388, 48 h. The text has this:
(1) Activity of inhibiting the growth of cultures leukemic cells P 3FB8

In another data set the test system is Leukemia L 1210. The experiment in a line: Anti-tumor effect for mice bearing Leukemia L 1210 (survival). It is filed as in vivo, CDF1 mice. To be noted: injected peritoneally for 10 days; for Percent survival (%): L 1210 1 x 10^5 cells/mouse i.p., 30 days observation, saline control = 100; for Toxicity remark in the percent survival cell: CDF1 mice bearing L 1210. The procedure:
(2) Anti-tumor effect for mice bearing Leukemia L 1210
A group of CDF1 mice were intraperitoneally transplanted with suspensions of leukemic cells L 1210 (1 x 10^5 cells/mouse). Immediately after the transplantation, a.25 mℓ each of the test compounds was injected peritoneally into the mice for 10 days. Observation was made for 30 days, and the percent survival for each test compound was determined, with 100 representing the number of days which the control mice group administered physiological saline survived.

The mark [1] stands for this setting: concentration giving 50% inhibition of growth of a two-day culture of P 388 cells vs untreated group, read-out: IC50.

Broadly, the IC50 is the midpoint of a concentration-inhibition curve. For `CCC1(O)CC(OC2CC(N(C)C)C(OC3CC4OC5CC(=O)C(C)OC5OC4C(C)O3)C(C)O2)c2cc3c(c(O)c2C1OC1CC(N(C)C)C(OC2CC4OC5CC(=O)C(C)OC5OC4C(C)O2)C(C)O1)C(=O)c1c(O)ccc(O)c1C3=O` (centres unmarked) [Compound 1-HSR, 1-hydroxyserirubicin], in the data set on leukemic cells P 388, the IC50 worked out at 12 ng/mL (≈ 10.2 nM). Moreover, the “Percent survival (%)” value with Leukemia L 1210 (Dose 0.0313 mg/kg/day) was 108%; with Leukemia L 1210 (Dose 0.0625 mg/kg/day), 127%; in the data set with Leukemia L 1210 (Dose 0.125 mg/kg/day), 151%; in the data set on Leukemia L 1210 (Dose 0.25 mg/kg/day), 145%; with Leukemia L 1210 (Dose 0.5 mg/kg/day), 139%; in the data set on Leukemia L 1210 (Dose 1 mg/kg/day), 114%. In addition, the “Toxicity remark in the percent survival cell” value with Leukemia L 1210 (Dose 1 mg/kg/day) is on record as “Toxin”.
In the data set with leukemic cells P 388, `CCC1(O)CC(OC2CC(N(C)C)C(O)C(C)O2)c2c(O)c3c(c(O)c2C1OC1CC(N(C)C)C(OC2CC4OC5CC(=O)C(C)OC5OC4C(C)O2)C(C)O1)C(=O)c1cccc(O)c1C3=O` (centres unmarked) [DTR-B/7de-dF-CB, ditrisarubicin B/7 de-dF-CB] registered a half-inhibitory concentration (IC50) of 21 ng/mL (≈ 22.3 nM).
In the case of `CCC1(O)CC(OC2CC(N(C)C)C(OC3CC4OC5CC(=O)C(C)OC5OC4C(C)O3)C(C)O2)c2c(O)c3c(c(O)c2C1OC1CC(N(C)C)C(O)C(C)O1)C(=O)c1cccc(O)c1C3=O` (centres unmarked) [DTR-B/10de-dF-CB], the IC50 in the data set on leukemic cells P 388 (setting [1]) was 9 ng/mL (≈ 9.56 nM).
Regarding `CCC1(O)CC(OC2CC(N(C)C)C(OC3CCC(OC4C=CC(=O)C(C)O4)C(C)O3)C(C)O2)c2c(O)c3c(c(O)c2C1OC1CC(N(C)C)C(OC2CC4OC5CC(=O)C(C)OC5OC4C(C)O2)C(C)O1)C(=O)c1cccc(O)c1C3=O` (centres unmarked) [DTR-CR, ditrisarubicin CR], in the data set on leukemic cells P 388, inhibition was half-maximal at 4 ng/mL (≈ 3.43 nM) (IC50).
Regarding `CCC1(O)CC(OC2CC(N(C)C)C(OC3CC4OC5CC(=O)C(C)OC5OC4C(C)O3)C(C)O2)c2c(O)c3c(c(O)c2C1OC1CC(N(C)C)C(OC2CCC(OC4CCC(=O)C(C)O4)C(C)O2)C(C)O1)C(=O)c1cccc(O)c1C3=O` (centres unmarked) [DTR-D, ditrisarubicin D], in the data set on leukemic cells P 388, the IC50 came out at 4 ng/mL (≈ 3.43 nM). In addition, the “Percent survival (%)” value with Leukemia L 1210 (Dose 0.0078 mg/kg/day) turned out to be 97%; in the data set with Leukemia L 1210 (Dose 0.0156 mg/kg/day) it was 102%; with Leukemia L 1210 (Dose 0.0313 mg/kg/day) it was 125%; in the data set with Leukemia L 1210 (Dose 0.0625 mg/kg/day) it was 142%; in the data set on Leukemia L 1210 (Dose 0.125 mg/kg/day) it was 114%; in the data set on Leukemia L 1210 (Dose 0.25 mg/kg/day), 131%.
Turning to `CCC1(O)CC(OC2CC(N(C)C)C(OC3CC(O)C(OC4CCC(=O)C(C)O4)C(C)O3)C(C)O2)c2c(O)c3c(c(O)c2C1OC1CC(N(C)C)C(OC2CC(O)C(OC4CCC(=O)C(C)O4)C(C)O2)C(C)O1)C(=O)c1cccc(O)c1C3=O` (centres unmarked) [DTR-E, ditrisarubicin E], the IC50 with leukemic cells P 388 (setting [1]) worked out at 7 ng/mL (≈ 5.91 nM). Also, the “Percent survival (%)” value in the data set with Leukemia L 1210 (Dose 0.0078 mg/kg/day) is 102%; in the data set with Leukemia L 1210 (Dose 0.0156 mg/kg/day) it was 102%; in the data set on Leukemia L 1210 (Dose 0.0313 mg/kg/day), 119%; with Leukemia L 1210 (Dose 0.0625 mg/kg/day), 163%; in the data set on Leukemia L 1210 (Dose 0.125 mg/kg/day), 156%; with Leukemia L 1210 (Dose 0.25 mg/kg/day), 106%.
Compound `CCC1(O)CC(OC2CC(N(C)C)C(OC3CC4OC5CC(=O)C(C)OC5OC4C(C)O3)C(C)O2)c2c(O)c3c(c(O)c2C1OC1CC(N(C)C)C(OC2CCC(OC4CCC(O)C(C)O4)C(C)O2)C(C)O1)C(=O)c1cccc(O)c1C3=O` (centres unmarked) [DTR-F, ditrisarubicin F] displayed a concentration for half-maximal inhibition (IC50) in the data set on leukemic cells P 388 of 3.8 ng/mL (≈ 3.25 nM). In addition, the “Percent survival (%)” value is recorded as 101% with Leukemia L 1210 (Dose 0.0078 mg/kg/day); 120% in the data set on Leukemia L 1210 (Dose 0.0156 mg/kg/day); 127% with Leukemia L 1210 (Dose 0.0313 mg/kg/day); 133% in the data set with Leukemia L 1210 (Dose 0.0625 mg/kg/day); 152% with Leukemia L 1210 (Dose 0.125 mg/kg/day); 133% in the data set with Leukemia L 1210 (Dose 0.25 mg/kg/day). Moreover, the “Toxicity remark in the percent survival cell” value with Leukemia L 1210 (Dose 0.25 mg/kg/day) is “Toxin”.
In turn, `CCC1(O)CC(OC2CC(N(C)C)C(OC3CC4OC5CC(=O)C(C)OC5OC4C(C)O3)C(C)O2)c2c(O)c3c(c(O)c2C1OC1CC(N(C)C)C(OC2CC(O)C(OC4CCC(O)C(C)O4)C(C)O2)C(C)O1)C(=O)c1cccc(O)c1C3=O` (centres unmarked) [DTR-G, ditrisarubicin G] had an IC50 in the data set on leukemic cells P 388 of 4.5 ng/mL (≈ 3.8 nM). For the same compound, the “Percent survival (%)” value in the data set with Leukemia L 1210 (Dose 0.0078 mg/kg/day) turned out to be 109%; in the data set with Leukemia L 1210 (Dose 0.0156 mg/kg/day) it was 111%; in the data set on Leukemia L 1210 (Dose 0.0313 mg/kg/day), 117%; in the data set with Leukemia L 1210 (Dose 0.0625 mg/kg/day) it was 163%; with Leukemia L 1210 (Dose 0.125 mg/kg/day), 138%; in the data set with Leukemia L 1210 (Dose 0.25 mg/kg/day), 125%. The “Toxicity remark in the percent survival cell” value in the data set on Leukemia L 1210 (Dose 0.25 mg/kg/day) was “Toxin”.
Regarding `CCC1(O)CC(OC2CC(N(C)C)C(OC3CC4OC5CC(=O)C(C)OC5OC4C(C)O3)C(C)O2)c2c(O)c3c(c(O)c2C1OC1CC(N(C)C)C(OC2CC(O)C(O)C(C)O2)C(C)O1)C(=O)c1cccc(O)c1C3=O` (centres unmarked) [DTR-G/de-Ro], in the data set with leukemic cells P 388, the 50% inhibitory concentration (IC50) came out at 12 ng/mL (≈ 11.2 nM).
As for `CCC1(O)CC(OC2CC(N(C)C)C(OC3CC(O)C(OC4CCC(O)C(C)O4)C(C)O3)C(C)O2)c2c(O)c3c(c(O)c2C1OC1CC(N(C)C)C(OC2CC4OC5CC(=O)C(C)OC5OC4C(C)O2)C(C)O1)C(=O)c1cccc(O)c1C3=O` (centres unmarked) [DTR-GR, ditrisarubicin GR], the IC50 in the data set with leukemic cells P 388 was found to be 4.2 ng/mL (≈ 3.54 nM).
Still for that read-out and setting: the result for `CCC1(O)CC(OC2CC(N(C)C)C(OC3CC(O)C(O)C(C)O3)C(C)O2)c2c(O)c3c(c(O)c2C1OC1CC(N(C)C)C(OC2CC4OC5CC(=O)C(C)OC5OC4C(C)O2)C(C)O1)C(=O)c1cccc(O)c1C3=O` (centres unmarked) [DTR-GR/de-Ro] reads 20 ng/mL (≈ 18.7 nM).
